Reference: PMC12668308, “A Novel Antimalarial Agent that Inhibits Protein Synthesis in Plasmodium falciparum” (Angewandte Chemie (International Ed. in English), 2025)
Where two headings read alike, the source gives them in different places.

Experiments:
[1] = system: Dd2 DSM265 (Dd2 + pfdhodh); experiment: [3H]-hypoxanthine incorporation assay; format: cell-based, Plasmodium falciparum; conditions: Plasmodium falciparum, 72 h
Procedure: (§1) ^[a]72-h [^3H] hypoxanthhine incorporation assay. Data is expressed as mean±s.d..
(§2) P. falciparum asexual blood stage parasites were cultured in human red blood cells (RBC, Blutspende SRK, Zurich) at a hematocrit of 5% in RPMI 1640 medium. The RPMI 1640 medium (ThermoFisher Scientific #51800−043) was supplemented with the following: 24 mM NaHCO3 (pH 7.3, Sigma-Aldrich #31437−500G-R), 25 mM Hepes (Sigma-Aldrich #H4034−500G), 0.36 mM hypoxanthine (Sigma-Aldrich # H9377−25G), 100 µg mL^-1 neomycin (Sigma-Aldrich #N6386−100G) and 0.5% Albumax II (Thermo Fisher #11021−045). Additionally, 2 mM choline chloride (279 mg/L, Sigma-Aldrich #C7527−100G) was added to the culture to block the induction of sexual commitment as described. ^[31^] The RPMI 1640 medium and components were dissolved in water (Milli-Q purified), stirred for at least 3 h, and then sterile filtered (0.22 μm pore size) with a bottle top filter (Corning # 431118). Parasite cultures were maintained in an atmosphere of 3% O2, 4% CO2, and 93% N2 in air-tight chambers at 37 °C. The [^3H]-hypoxanthine incorporation assay was used to test compound activity in the specific parasite lines as described.^[32^] Briefly, compounds were dissolved in DMSO (10 mM) and diluted in a hypoxanthine-free culture medium. A limiting dilution was performed over a 64-fold range (6-step twofold dilution) in a 96-well plate in duplicates. For every starting concentration, a limiting dilution was performed over a 64-fold range (6-step twofold dilution) in a 96-well plate in two biological duplicates. Parasites were added at 100 µL to each well containing the compound to obtain a final parasitemia of 0.3% and haematocrit of 1.25%. The plates were incubated for 48 h before 0.25 µCi of [^3H]-hypoxanthine was added per well for an additional 24 h. Parasites were harvested on a glass-fiber filter with a Microbeta FilterMate cell harvester (Perkin Elmer, Waltham, USA) and radioactivity was counted using a MicroBeta2 liquid scintillation counter (Perkin Elmer, Waltham, US). The results were recorded, processed by subtraction of the mean background signal obtained from the uninfected RBC controls and expressed as percentage of untreated controls. The fifty percent inhibitory concentration (IC50) was calculated by using nonlinear, four parameter (variable slope) curve fitting as described ^[33^] after importing into GraphPad Prism (version 8.3.0).

P. falciparum Dd2 = experiment: [3H]-hypoxanthine incorporation assay; format: cell-based, Plasmodium falciparum; conditions: Plasmodium falciparum, DD2, 72 h
Procedure: as §1, §2

[2] = system: Dd2 MMV390048 (Dd2 + pfpI4k); experiment: [3H]-hypoxanthine incorporation assay; format: cell-based, Plasmodium falciparum; conditions: Plasmodium falciparum, DD2, 72 h
Procedure: as §1, §2

[3] = system: Dd2 DDD107458 (Dd2 + pfeEF2); experiment: [3H]-hypoxanthine incorporation assay; format: cell-based, Plasmodium falciparum; conditions: Plasmodium falciparum, DD2, 72 h
Procedure: as §1, §2

[4] = system: Dd2 ELQ300 (Dd2 + pfcytb); experiment: [3H]-hypoxanthine incorporation assay; format: cell-based, Plasmodium falciparum; conditions: Plasmodium falciparum, DD2, 72 h
Procedure: as §1, §2

[5] = system: Dd2 Fosmidomycin (Dd2 + pfdxr); experiment: [3H]-hypoxanthine incorporation assay; format: cell-based, Plasmodium falciparum; conditions: Plasmodium falciparum, DD2, 72 h
Procedure: as §1, §2

[6] = system: Dd2 GNF156 (Dd2 + pfcarl); experiment: [3H]-hypoxanthine incorporation assay; format: cell-based, Plasmodium falciparum; conditions: Plasmodium falciparum, DD2, 72 h
Procedure: as §1, §2

[7] = system: Dd2 NITD609 (Dd2 + pfatp4); experiment: [3H]-hypoxanthine incorporation assay; format: cell-based, Plasmodium falciparum; conditions: Plasmodium falciparum, DD2, 72 h
Procedure: as §1, §2

P. falciparum K1 = experiment: [3H]-hypoxanthine incorporation assay; format: cell-based, Plasmodium falciparum; conditions: Plasmodium falciparum; K1; 72-h assay; mean±s.d.; read-out: IC50
Procedure: as §1, §2

3D7^WT = experiment: [3H]-hypoxanthine incorporation assay; format: cell-based; conditions: Plasmodium falciparum, 3D7; 72-h assay; mean±s.d.; read-out: 3D7^WT IC50
Procedure: ^[a] 72-h [^3H] hypoxanthhine incorporation assay; Data is expressed as mean±s.d.. The assay was performed in three independent biological experiments, each in biological duplicates.
as §2

[8] = system: P. falciparum NF54 strain; experiment: [3H]-hypoxanthine incorporation assay, asexual blood stage; format: cell-based, Plasmodium falciparum; conditions: Plasmodium falciparum
Procedure: as §2, with “The results were recorded, processed by subtraction of the mean background signal obtained from the uninfected RBC controls and expressed as percentage of untreated controls.” left out

Dd2b2^31-R1.2 = experiment: [3H]-hypoxanthine incorporation assay; format: cell-based, Plasmodium falciparum; conditions: Plasmodium falciparum, read-out: mean IC50 value ± s.d.
Procedure: as §2, with “The results were recorded, processed by subtraction of the mean background signal obtained from the uninfected RBC controls and expressed as percentage of untreated controls.” left out
(§3) 31 was used for resistance selection studies using the strain Dd2b2 (kindly provided by David Fidock). Resistance selection was done as described in ^[34^]. As summarized in Table S3, an initial inoculum of 2 x 10^9 asexual blood stage parasites (at 2-2.5% parasitemia) were cultured in three independent flasks. […] Cloning via limiting dilution was performed to obtain resistant clones for further characterization as described in section 2.2.5.

Dd2b2^WT = experiment: [3H]-hypoxanthine incorporation assay; format: cell-based, Plasmodium falciparum; conditions: Plasmodium falciparum, 72 h, read-out: Parent (Dd2b2^WT) IC50
Procedure: as §2, with “The results were recorded, processed by subtraction of the mean background signal obtained from the uninfected RBC controls and expressed as percentage of untreated controls.” left out
as §3

Dd2b2^31-R2.1 = experiment: [3H]-hypoxanthine incorporation assay; format: cell-based, Plasmodium falciparum; conditions: Plasmodium falciparum, read-out: mean IC50 value ± s.d.
Procedure: as §2, with “The results were recorded, processed by subtraction of the mean background signal obtained from the uninfected RBC controls and expressed as percentage of untreated controls.” left out
as §3

Dd2b2^31-R3.1 = experiment: [3H]-hypoxanthine incorporation assay; format: cell-based, Plasmodium falciparum; conditions: Plasmodium falciparum, read-out: mean IC50 value ± s.d.
Procedure: as §2, with “The results were recorded, processed by subtraction of the mean background signal obtained from the uninfected RBC controls and expressed as percentage of untreated controls.” left out
as §3

Dd2b2^31-R1.1 = experiment: [3H]-hypoxanthine incorporation assay; format: cell-based, Plasmodium falciparum; conditions: Plasmodium falciparum, read-out: mean IC50 value ± s.d.
Procedure: as §2, with “The results were recorded, processed by subtraction of the mean background signal obtained from the uninfected RBC controls and expressed as percentage of untreated controls.” left out
as §3

PfIspD = PfIspD (Plasmodium falciparum, UniProt W7KNE8); experiment: PfIspD inhibition; format: biochemical; conditions: mean ± s.d.
PfIspD, sequence (W7KNE8 entry or part of it): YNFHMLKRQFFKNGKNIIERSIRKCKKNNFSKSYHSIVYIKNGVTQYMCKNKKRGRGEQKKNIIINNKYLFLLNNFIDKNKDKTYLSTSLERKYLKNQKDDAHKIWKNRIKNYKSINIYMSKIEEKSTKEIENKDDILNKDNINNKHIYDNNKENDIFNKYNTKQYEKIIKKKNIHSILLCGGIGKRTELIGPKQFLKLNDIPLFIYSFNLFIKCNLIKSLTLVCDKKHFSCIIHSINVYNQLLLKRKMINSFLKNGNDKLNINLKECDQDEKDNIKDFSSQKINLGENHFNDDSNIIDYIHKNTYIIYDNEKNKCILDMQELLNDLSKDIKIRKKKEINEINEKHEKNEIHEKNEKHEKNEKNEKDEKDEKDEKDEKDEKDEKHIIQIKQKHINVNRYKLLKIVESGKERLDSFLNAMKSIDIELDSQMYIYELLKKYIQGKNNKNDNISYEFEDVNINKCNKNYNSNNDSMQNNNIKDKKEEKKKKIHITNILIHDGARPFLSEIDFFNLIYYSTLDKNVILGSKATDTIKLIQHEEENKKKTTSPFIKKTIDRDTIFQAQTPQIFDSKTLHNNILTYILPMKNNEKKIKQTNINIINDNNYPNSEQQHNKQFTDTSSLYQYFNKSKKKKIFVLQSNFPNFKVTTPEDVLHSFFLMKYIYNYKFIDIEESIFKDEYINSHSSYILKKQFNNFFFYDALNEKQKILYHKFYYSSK

[9] = system: mRNA translation in NF54 trophozoite-stage parasites; experiment: Surface sensing of translation (SUnSET) assay; format: cell-based, Plasmodium falciparum; conditions: trophozoites 30–35 hpi; 31 at 3x, 50x, 100x IC50; 34 and pyrimethamine at 3x IC50
Procedure: To confirm the role of 31 as a translation inhibitor, the surface sensing of translation (SUnSET) assay was employed. This involves incubating the culture with a translation inhibitor, puromycin, a structural analogue of aminoacyl tRNA. Puromycin is incorporated in the nascent polypeptide chain and prevents further elongation. When puromcyin is used in sub‐lethal concentrations, incorporation of puromycin in neosynthesized protein correlates with the levels of mRNA translation (Figure 3c, lane2).^[ [27] ^] […] This trend was further confirmed by the quantified western blot signals (Figures 3d and S4C) that are consistent with the iSPP profiling results.
SUnSET: The SUnSET assay was done as described in. ^[27^]Tightly synchronized NF54 wild type parasites were treated with the compounds for 4h at 30-35 hpi (trophozoite stage). The following compounds and amounts used were: cycloheximide (3xIC50, 1,2 µM; Calbiochem), pyrimethamine (3xIC50, 21 nM; MedChemExpress), 34 (3xIC50, 12 µM), and 31 (3xIC50, 12 nM; 50xIC50, 200 nM; 100xIC50, 400 nM). Parasites were incubated with 1 µg mL^-1 (Sigma P8833) for 1 h at 37 °C and saponin lysis was performed.
Saponin lysis and Western blot: Saponin lysis was done on infected RBC at ~5% parasitemia to lyse erythrocytes. Parasite cultures were centrifuged at 1,200 g for 5 min at room temperature. Once the supernatant was discarded, 10 volumes of ice-cold 0.1% (w/v) saponin (Calbiochem 558255, dissolved in PBS, and filtered with 0,22) was added, incubated on ice for 10 min and centrifuged for 2,272 g for 15 min at 4 °C. […] The membrane was washed 3 times in PBS-T (3 min incubation in each washing step) and the signal was detected using the chemiluminescent substrate SuperSignal West Pico Plus (Thermo Scientific, REF 34580) and the imaging system Vilber Fusion FX7 Edge 17.10 SN. Quantification of Western blot signal was done by measuring the integrated density of each lane using ImageJ analysis software (version 1.54p). […]

C[C@H]1[C@H](OC(=O)CCC(=O)O)O[C@@H]2O[C@@]3(C)CC[C@H]4[C@H](C)CC[C@@H]1[C@@]24OO3 [Artesunate, artesunate, reference compound]
IC50 [1]: 0.2 ± 0.01 nM | IC50 (P. falciparum Dd2): 0.3 ± 0.2 nM | IC50 [2]: 0.3 ± 0.1 nM | IC50 [3]: 0.2 ± 0.2 nM | IC50 [4]: 0.2 ± 0.01 nM | IC50 [5]: 0.2 ± 0.01 nM | IC50 [6]: 0.2 ± 0.02 nM | IC50 [7]: 0.2 ± 0.01 nM | IC50 (P. falciparum K1): 0.2 ± 0.01 nM | IC50 (3D7^WT): 0.6 ± 0.1 nM | IC50 ([8]; NF54, 72 h, Table S2, NF54 sensitive strain, 72-h assay, mean±s.d., read-out: IC50): 0.4 ± 0.07 nM | IC50 (Dd2b2^31-R1.2): 2.2 ± 0.6 nM | IC50 (Dd2b2^WT): 0.5 ± 0.1 nM | IC50 (Dd2b2^31-R2.1): 2.6 ± 1.5 nM | IC50 (Dd2b2^31-R3.1): 1.2 ± 0.6 nM | IC50 (Dd2b2^31-R1.1): 1.6 ± 0.3 nM

O=C(Nc1cc(S(=O)(=O)N2CCCC2)ccc1O)c1cccc(Oc2ccccc2)c1 [Compound 1, N-(2-Hydroxy-5-(pyrrolidin-1-ylsulfonyl)phenyl)-3-phenoxybenzamide]
IC50 (PfIspD): 15000 ± 4000 nM | IC50 ([8]; NF54, asexual blood stage, mean ± s.d., read-out: PfNF54 IC50 ± s.d.): 592 ± 77.6 nM

CCc1nc(N)nc(N)c1-c1ccc(Cl)cc1 [Pyrimethamine, reference compound]
mRNA translation (puromycin incorporation) [9]: did not reduce mRNA translation
